The results in this text go back to US20230330025A1, “Particle Modifiers for Multi-Drug Loaded Nanoparticles” (UNIVERSITY OF CONNECTICUT, priority 2022, published 2023).

Structures are written as SMILES. Counter-ions that a name gives are not always drawn.

This data set in a line: In vitro release study (dialysis method). The data set is classed as physicochemical. Particulars: PBS pH 5.5, 6.5, 7.4; 37 °C; 100 kD dialysis. The method, then:
The release study was conducted using a dialysis method with PBS as the buffer media at pH 5.5, 6.5, and 7.4 to simulate the endosomal, tumoral, and plasma conditions, respectively. The pH was adjusted using 1 M HCl solution or 1 M NaOH solution as needed to achieve the desired media pH. Briefly, 5 mL of each formulation were placed in Spectrum Float-A-Lyzer G2 dialysis tubes (Thermo Fisher Scientific, Waltham, MA) with a molecular weight cut-off of 100 kD, which were then immersed in 50 mL of release media. The containers were incubated at 37° C. under shaking at 150 rpm for 96 hours. At 0-, 1-, 2-, 4-, 8-, 12-, 24-, 36-, 48-, 72-, and 96-hour intervals, 500 μL of the sample solution was withdrawn from the release media and replaced with an equal amount of fresh medium. The samples were analyzed using the UPLC-UV method previously described. The error bars were obtained by measuring each sample in triplicate.

Consider `COc1cccc2c1C(=O)c1c(O)c3c(c(O)c1C2=O)C[C@@](O)(C(=O)CO)C[C@@H]3O[C@H]1C[C@H](N)[C@H](O)[C@H](C)O1` [DOX solution, Doxorubicin (hydrochloride salt)], for which the “DOX passed through membrane by 24 hours” value was ~100% and the “DOX released (passed dialysis membrane) within first 4 hours” value is “About 80%”.
